# Assay results taken from patent US20040244713A1, “Method for treating animals or masses of water with compositions comprising quinone compounds” (priority 2003, published 2004).
# Marks after values point to notes of the source that are not given here.
# Experiments:
# Artemia Salina = experiment: Toxicity test LC50 on Artemia Salina; settings: in vivo
# Source text: (§8) The table below lists the results of the toxicity tests performed on fish fauna and on some phyto- and zooplankton species considered among the possible targets of the claimed method.
# Rainbow trout = experiment: Toxicity test LC50 on fish fauna, Rainbow trout; assay type: in vivo
# Source text: as §8
# [1] = Photodegradability in sunlight and UV light; assay type: physicochemical; settings: 10-ppm solution in drinking water (pH 6.5-7.5)
# Protocol: In a fully similar manner, the same behaviour is confirmed if one assesses the photodegradability in sunlight and UV light (the radiation test was performed on a 10-ppm solution in drinking water (pH 6.5-7.5)
# Eurytemora Affinis = experiment: Toxicity test LC50 on Eurytemora Affinis; settings: in vivo
# Source text: as §8
# [2] = test system: Dreissena Polimorfa Larvae; experiment: Toxicity test LC50 on Dreissena Polimorfa larvae; settings: in vivo
# Source text: as §8
# Eimeria acervulina = experiment: Coccid infection in chicken, Eimeria acervulina; assay type: in vivo; settings: chickens (Ross males), 250 ppm of MPB in feed, inoculated orally with 100,000 oocysts; fecal count 16 hours before killing; n=6
# Protocol: (§1) The effect of a preparation comprising menadione dimethylpirymidinol bisulfite (MPB) on coccid infection in chicken was assessed.
# (§2) Composition of the preparation (per Kg of final preparation):
# (§3) MPB coated with vegetable hydrogenated fatty acids (1:1 inclusion ratio) 500 g,
# (§4) This preparation was added in the amount of 1 Kg per ton of feed, so that the final concentration of MPB was equal to 250 ppm of MPB (equivalent to approximately 109 ppm of menadione). Since a chicken eats on average 70-80 grams of feed per day, the daily dose of MPB was equal to approximately 17-20 mg/animal per day.
# (§5) The chickens (Ross males) were raised in individual cages for four weeks with a commercial feed in comparison with the same feed integrated with said preparation at the dose of 1 Kg/ton.
# (§6) At the end of the third week, the chickens were weighed and divided into uniform weight groups within each treatment and were orally inoculated (1 ml) respectively with 50,000 oocysts of Eimeria tenella or 100,000 oocysts of E. acervulina. The fecal count of the oocysts was performed (method described in Hodgson J. N. 1970, Exp. Parasitol. 28:99-102) 16 hours before killing the animals.
# (§7) The coccidiostatic effect is confirmed by the score of the lesions six days after inoculation (method described by Johson J. et Al. 1970, Exp. Parasitol. 28:30-36).
# Eimeria tenella = experiment: Coccid infection in chicken, Eimeria tenella; assay type: in vivo; settings: chickens (Ross males), 250 ppm of MPB in feed, inoculated orally with 50,000 oocysts; fecal count 16 hours before killing; n=6
# Protocol: as §1, §2, §3, §4, §5, §6, §7
# Isochris Galbana = experiment: Toxicity test LC50 on Isochris Galbana; assay type: cell-based
# Source text: as §8
# [3] = Biodegradability OECD 301 A (92/69/EEC C4-A); assay type: physicochemical
# Source text: The degradability of a substance is normally a factor that is impossible to predict on a structural basis. […] On the basis of the available data related to the compounds that are chemically more similar to the derivatives of menadione described here, one could have expected a degradability comprised between the 0% (percentage calculated on the initial mass of product expressed as mg/l) of menadione (2-methyl-1,4-naphthalenedione) and the 17% (assessed after 28 days) of menadione sodium bisulfite (where the calculation was performed by using the OECD301 A guidelines annexed to EEC directive 92/69/EEC C4-A).
# Finally, biodegradability according to the 92/69/EEC C4-A regulation was also assessed.
# [4] = Hydrolysis test performed in darkness; assay type: physicochemical
structure (smiles),measurement,setting,value
"CC1(S(=O)(=O)O)CC(=O)c2ccccc2C1=O.Cc1cc(C)[nH]c(=O)n1 (stereo not drawn) [MPB, menadione dimethylpirymidinol bisulfite]",LC50 Artemia Salina,Artemia Salina,5 ppm
same,LC50 Rainbow trout (assessed on 96 h),Rainbow trout,0.4 ppm
same,Light exp. Total Degr.,[1],48 h
same,Light exp. ½ life,[1],10 h
same,LC50 Eurytemora Affinis,Eurytemora Affinis,5 ppm
same,LC50 Dreissena Polimorfa Larvae,[2],1 ppm
same,"Excretion of oocysts, Eimeria acervulina",Eimeria acervulina,5.9 ± 0.8^a ×10^8
same,"Excretion of oocysts, Eimeria tenella",Eimeria tenella,0.44 ± 0.05^a ×10^8
same,LC50 Isochris Galbana,Isochris Galbana,0.5 ppm
same,degradability compared with that of MSB,[3]; 7 days after the beginning of the test,as much as eight times higher
same,% biodegr. OECD 301 A,[3]; after 7 days,37%
same,% biodegr. OECD 301 A,[3]; after 14 days,37%
same,% biodegr. OECD 301 A,[3]; after 28 days,40%
same,"½ LIFE, hydrolysis","[4]; PH 6.8, in darkness",48 h
same,"½ LIFE, hydrolysis","[4]; PH 9, in darkness",<3 h
